From patent US10030027B2, “Soluble guanylate cyclase stimulators” (MERCK SHARP & DOHME CORP., priority 2015, dated 2018) come the findings set out here.

SMILES strings stand for the structures.

One experiment concerns the target sGC α1/β1 heterodimer (Homo sapiens (Human), UniProt Q02108+Q02153). Briefly: Cell-based sGC functional assay (cyclic GMP assay for sGC activator: CASA assay). The note with it: CHO-K1/sGC cells; for EC50: inflection point, 4P fit, read-out: IP; for Emax: CHO-K1, activity expressed as percentage of compound A (standard), read-out: % Activation. An outline of the steps: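 CHO-K1 cells stably expressing human sGC α1/β1 were pre-incubated 30 min at 25° C with or without 1 μM DETA-NO, then exposed to compound for 1 hr at 37° C with 0.5 mM IBMX and 2.5% DMSO final. Intracellular cGMP was measured by HTRF, expressed as % of reference sGC-HDA maximum; inflection point and maximum fold induction came from 4-parameter fits.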

Experiment [1] has as its target human recombinant sGC enzyme (Homo sapiens (Human), UniProt Q02108+Q02153). The experiment is described as follows: Size Exclusion Chromatography (SEC) competition binding assay using [3H] Ex-77B as the radioligand. Conditions: [3H] Ex-77B radioligand, 24 hours at 37° C. An outline of the steps: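 Recombinant human sGC binding measured by competition against tritiated Ex-77B radioligand, with non-specific binding defined by 1 μM unlabeled Ex-77B.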

On to `CC1(c2cn(C(C)(C)C(=O)O)nn2)C(=O)Nc2nc(-c3nn(Cc4ccccc4F)c4cc(Cl)ccc34)nc(N)c21` (single isomer, unassigned) [Example 141A, 2-(4-{4-Amino-2-[6-chloro-1-(2-fluorobenzyl)-1H-indazol-3-yl]-5-methyl-6-oxo-6,7-dihydro-5H-pyrrolo[2,3-d]pyrimidin-5-yl}-1H-1,2,3-triazol-1-yl)-2-methylpropanoic acid], for which the EC50 on sGC α1/β1 heterodimer was found to be 193 nM. Further, the Ki in experiment [1] was 0.665 nM.

In the case of `CC1(c2ccc(CCC(=O)O)c(Br)c2)C(=O)Nc2nc(-c3nn(CCC(F)(F)C(F)(F)F)c4cc(Cl)ccc34)nc(N)c21` (stereo not shown) [Example 4B, 3-(4-{4-amino-2-[6-chloro-1-(3,3,4,4,4-pentafluoro-butyl)-1H-indazol-3-yl]-5-methyl-6-oxo-6,7-dihydro-5H-pyrrolo[2,3-d]pyrimidin-5-yl}-2-bromophenyl)propanoic acid], on sGC α1/β1 heterodimer, the Emax was 126% and the EC50 was found to be 294 nM. In experiment [1], the Ki worked out at 0.391 nM.

Take `Cc1ccnc(Cn2nc(-c3nc(N)c4c(n3)NC(=O)[C@@]4(C)c3nc(CC(C)(C)C(=O)O)cs3)c3ccc(Cl)cc32)c1F` [Example 216A, (S)-3-(2-{4-amino-2-[6-chloro-1-((3-fluoro-4-methyl-pyridin-2-yl)methyl)-1H-indazol-3-yl]-5-methyl-6-oxo-6,7-dihydro-5H-pyrrolo[2,3-d]pyrimidin-5-yl} 1,3-thiazol-4-yl)-2,2-dimethyl-propanoic acid]: on sGC α1/β1 heterodimer, the Emax amounted to 132% and the EC50 is 678 nM. For the same molecule, in experiment [1], the Ki is 0.11 nM.

With `CC1(c2ccc(CCCC(=O)O)cc2)C(=O)Nc2nc(-c3nn(CCC(F)(F)C(F)(F)F)c4ncccc34)nc(N)c21` (stereo not shown) [Example 116A, 4-(4-{4-amino-5-methyl-6-oxo-2-[1-(3,3,4,4,4-pentafluorobutyl)-1H-pyrazolo[3,4-b]pyridin-3-yl)-6,7-dihydro-5H-pyrrolo[2,3-d]pyrimidin-5-yl}phenyl)butanoic acid], on sGC α1/β1 heterodimer, the Emax turned out to be 78% and the EC50 was determined as 608 nM. In addition, in experiment [1], the Ki is 0.296 nM.

Turning to `CC(C)(Cn1cc(C2(C)C(=O)Nc3nc(-c4nn(Cc5ccccc5F)c5cc(Cl)ccc45)nc(N)c32)cn1)C(=O)O` (stereo not shown) [Example 171A, 3-(4-{4-amino-2-[6-chloro-1-(2-fluorobenzyl)-1H-indazol-3-yl]-5-methyl-6-oxo-6,7-dihydro-5H-pyrrolo[2,3-d]pyrimidin-5-yl}-1H-pyrazol-1-yl)-2,2-dimethyl-propanoic acid], at sGC α1/β1 heterodimer, the Emax was 135% and the EC50 came to 1220 nM. Besides, the Ki in experiment [1] amounted to 0.094 nM.

Regarding `C[C@@]1(c2ccc(CCC(=O)O)cc2)C(=O)Nc2nc(-c3nn(CCCC(F)(F)F)c4nc(Cl)ccc34)nc(N)c21` [Example 19B, (S)-3-(4-{4-amino-2-[6-chloro-1-(4,4,4-trifluorobutyl)-1H-pyrazolo[3,4-b]pyridin-3-yl]-5-methyl-6-oxo-6,7-dihydro-5H-pyrrolo[2,3-d]pyrimidin-5-yl}phenyl)propanoic acid], on sGC α1/β1 heterodimer, the Emax amounted to 89% and the EC50 was found to be 1040 nM. Moreover, the Ki in experiment [1] was 0.286 nM.

Regarding `CC(C)(Cc1coc(C2(C)C(=O)Nc3nc(-c4nn(Cc5ccc(F)cc5)c5cc(Cl)ccc45)nc(N)c32)n1)C(=O)O` (stereo not shown) [Example 173A, 3-(2-{4-amino-2-[6-chloro-1-(4-fluorobenzyl)-1H-indazol-3-yl]-5-methyl-6-oxo-6,7-dihydro-5H-pyrrolo[2,3-d]pyrimidin-5-yl}-1,3-oxazol-4-yl)-2,2-dimethyl-propanoic acid], on sGC α1/β1 heterodimer, the Emax was 83.4% and the EC50 was 557 nM. In addition, in experiment [1], the Ki worked out at 0.252 nM.

For the molecule `CC(C)(CCc1coc(C2(C)C(=O)Nc3nc(-c4nn(Cc5ccccc5F)c5cc(Cl)ccc45)nc(N)c32)n1)C(=O)O` (stereo not shown) [Example 167B, 4-(2-{4-amino-2-[6-chloro-1-(2-fluorobenzyl)-1H-indazol-3-yl]-5-methyl-6-oxo-6,7-dihydro-5H-pyrrolo[2,3-d]pyrimidin-5-yl}-1,3-oxazol-4-yl)-2,2-dimethyl-butanoic acid], on sGC α1/β1 heterodimer, the Emax was found to be 107% and the EC50 came out at 93 nM. For the same molecule, the Ki in experiment [1] was 0.07 nM.

In the case of `CC1(c2cccc(-c3nn[nH]n3)n2)C(=O)Nc2nc(-c3nn(Cc4ccccc4F)c4cc(Cl)ccc34)nc(N)c21` (single isomer, unassigned) [Example 253A, 5-[6-(2H-tetrazol-5-yl)pyridin-2-yl]-4-amino-2-[6-chloro-1-(2-fluorobenzyl)-1H-indazol-3-yl]-5-methyl-5,7-dihydro-6H-pyrrolo[2,3-d] pyrimidin-6-one], the EC50 at sGC α1/β1 heterodimer was determined as 3630 nM. In addition, in experiment [1], the Ki was found to be 0.146 nM.

As to `C[C@@]1(c2ccc(CCC(=O)O)cc2)C(=O)Nc2nc(-c3nn(CCCC(F)(F)F)c4ncccc34)nc(N)c21` [Example 15B, (S)-3-(4-{4-amino-5-methyl-6-oxo-2-[1-(4,4,4-trifluorobutyl)-1H-pyrazolo[3,4-b]pyridin-3-yl]-6,7-dihydro-5H-pyrrolo[2,3-d]pyrimidin-5-yl}phenyl)propanoic acid], at sGC α1/β1 heterodimer, the Emax is 95% and the EC50 was determined as 1320 nM. Also, the Ki in experiment [1] worked out at 0.455 nM.

As for `CC1(c2ccc(CC(=O)O)cc2)C(=O)Nc2nc(-c3nn(Cc4ccccc4F)c4ncccc34)nc(N)c21` (stereo not shown) [Example 114A, (4-{4-Amino-2-[1-(2-fluorobenzyl)-1H-pyrazolo[3,4-b]pyridin-3-yl]-5-methyl-6-oxo-6,7-dihydro-5H-pyrrolo[2,3-d]pyrimidin-5-yl}phenyl)acetic acid], on sGC α1/β1 heterodimer, the Emax was 108% and the EC50 came out at 1340 nM. Further, the Ki in experiment [1] was 0.092 nM.

Regarding `CC1(c2ccc(-c3nn[nH]n3)cc2)C(=O)Nc2nc(-c3nn(Cc4ccccc4F)c4cc(F)ccc34)nc(N)c21` (stereo not shown) [Example 250B, 4-amino-2-[6-fluoro-1-(2-fluorobenzyl)-1H-indazol-3-yl]-5-methyl-5-[4-(1H-tetrazol-5-yl)phenyl]-5,7-dihydro-6H-pyrrolo[2,3-d] pyrimidin-6-one], on sGC α1/β1 heterodimer, the Emax was 102% and the EC50 is 1700 nM. Moreover, the Ki in experiment [1] came out at 0.108 nM.

Take `CC(C)(CCc1coc(C2(C)C(=O)Nc3nc(-c4nn(Cc5ccccc5F)c5cc(F)ccc45)nc(N)c32)n1)C(=O)O` (stereo not shown) [Example 193B, 4-(2-{4-amino-2-[6-fluoro-1-(2-fluorobenzyl)-1H-indazol-3-yl]-5-methyl-6-oxo-6,7-dihydro-5H-pyrrolo[2,3-d]pyrimidin-5-yl}-1,3-oxazol-4-yl)-2,2-dimethyl-butanoic acid]: at sGC α1/β1 heterodimer, the Emax worked out at 89.2% and the EC50 stood at 69 nM. In addition, in experiment [1], the Ki worked out at 0.052 nM.

As for `CC1(c2nc(C[C@@H](N)C(=O)O)co2)C(=O)Nc2nc(-c3nn(Cc4ccccc4F)c4cc(Cl)ccc34)nc(N)c21` (single isomer, unassigned) [Example 172A, 3-(2-{4-amino-2-[6-chloro-1-(2-fluorobenzyl)-1H-indazol-3-yl]-5-methyl-6-oxo-6,7-dihydro-5H-pyrrolo[2,3-d]pyrimidin-5-yl}-1,3-oxazol-4-yl)-D-alanine], on sGC α1/β1 heterodimer, the Emax was determined as 92.7% and the EC50 is 1030 nM. The Ki in experiment [1] was determined as 0.098 nM.
